Reference: US5338830A, “Biologically active peptide derived from chicken (chicken CNP)” (Suntory Limited, priority 1990, dated 1994)
Entries after “also recorded” stand apart in the source; their conditions may differ. Where two headings read alike, the source gives them in different places. Where a SMILES comes first, the peptide text is derived from it. Bridges are numbered along the chain shown (N, C = ends). Where no end group is shown, it is not given here.

Tests used:
chicken rectum = test system: chicken rectum
Method: Relaxant activity in chicken rectum was measured in accordance with the method of […] and Currie ([…]. and Matsuo, H., Biochem. Biophys. Res. Commun., 118, 131-139, 1984; Currie, […]., Cole, […]. and Needleman, P. Science, 221, 71-73, 1983). The values are averages of six repeats. […] Although cCNP lacked the tail sequence at the C-terminal which had been considered to be important for analog peptides in displaying biological activities such as diuretic action (Watanabe, T. X., Noda, Y., Chino […]. and Imai, M. Eur. J.

Male SD rats [1] = assay: Diuretic and natriuretic action in anesthetized rats (urine amount, electrolyte excretion); assay type: in vivo, rat; conditions: for excretion Cl- / excretion K+ / excretion Na+ / excretion urine: urine 15 min after versus before, Mean±S.E.M.
Method: (§1) Diuretic action of cCNP was measured in accordance with the method described in […] et al and Sudoh et al ([…]. et al., Biochem. Biophys. Res. Commun., 118, 131-139, 1984; Sudoh, […]., Minamino, N. and Matsuo, H. Nature, 322, 78-81, 1988). Male SD rats (weight 300-400 g) were anesthetized by intraperitoneally receiving 50 mg/kg pentobarbitol, and a tracheal cannula (PE-240, Cray Adams) was provided to secure an airway. A cannula for measuring the blood pressure (PE-50) was inserted into one of the femoral arteries, and Ringer solution was injected through a cannula (PE-10) inserted into the femoral venous, at a constant rate of 1.8 ml/hr. Urine was collected into a test tube through a bladder cannula of silastic tube (inside diameter 0.02 inch, outside diameter 0.037 inch, Dow Corning). The collection of urine was carried out for 15 min before the administration of the peptides, at 5 min intervals after the administration till 15 min, and then at appropriate time intervals. The effect of the peptides was measured by comparing the amount of the urine samples and the concentration of the electrolyte in the urine samples, as well as by the change of the blood pressure. In the above assay, a predetermined amount of cCNP was dissolved in 0.1N acetic acid, and neutralized with one tenth volume of 1.3M Tris solution. Then, the solution was diluted with 50 μl of a sterile physiological water, and administered through the cervical vein. […] In Table 2, diuretic and natriuretic responses are shown in terms of the amount of the urine, the percentages in the […] of the excretion of Na^+, K^+ and Cl^- (Means±S.E.M.), in which urine samples were collected separately over 15 min before and after the intravenous injection of the peptides to anesthetized rats. Three to six rats were used for each peptide. […] In a typical experiment, the blood pressure at the contract phase of heart was decreased by about 5% over a period of 30 min by the action of 30 μg/kg of cCNP. […] Biochem. Biophys. Res. Commun., 168, 863-870, 1990).

Male SD rats [2] = assay: Vasodepressor activity (change of blood pressure) in anesthetized rats; assay type: in vivo, rat
Method: as §1

[3] = 30 μg/kg intravenous, anesthetized rats
[4] = 90 μg/kg intravenous, anesthetized rats
[5] = 200 μg/kg intravenous, anesthetized rats
[6] = 3.0 μg/kg intravenous, anesthetized rats

Compound: CC[C@H](C)[C@@H]1NC(=O)[C@H](CCCNC(=N)N)NC(=O)[C@H](CC(=O)O)NC(=O)[C@H](CC(C)C)NC(=O)[C@H](CCCCN)NC(=O)[C@H](C(C)C)NC(=O)CNC(=O)[C@H](Cc2ccccc2)NC(=O)[C@@H](NC(=O)[C@H](CO)NC(=O)[C@H](CCCNC(=N)N)NC(=O)[C@H](CO)NC(=O)[C@H](CC(C)C)NC(=O)CN)CSSC[C@@H](C(=O)O)NC(=O)CNC(=O)[C@H](CC(C)C)NC(=O)CNC(=O)[C@H](CO)NC(=O)[C@H](CCSC)NC(=O)[C@H](CO)NC(=O)CNC1=O [cCNP] (H-GLSRSCFGVKLDRIGSMSGLGC-OH; disulfide 6-22)
- relative activity (chicken rectum): 321
- relaxant activity higher than fANP-21 (fold) (chicken rectum; cCNP versus fANP-21): ~5 times
- relaxant activity higher than α-hANP (fold) (chicken rectum; cCNP versus α-hANP): about 2 times
- excretion Cl- (Male SD rats [1]; [3]): 171 ± 2%
- excretion K+ (Male SD rats [1]; [3]): 145 ± 12%
- excretion Na+ (Male SD rats [1]; [3]): 160 ± 9%
- excretion urine (Male SD rats [1]; [3]): 153 ± 32%
- excretion Cl- (Male SD rats [1]; [4]): 214 ± 5%
- excretion K+ (Male SD rats [1]; [4]): 163 ± 02%
- excretion Na+ (Male SD rats [1]; [4]): 193 ± 6%
- excretion urine (Male SD rats [1]; [4]): 261 ± 19%
- excretion Cl- (Male SD rats [1]; [5]): 338 ± 107%
- excretion K+ (Male SD rats [1]; [5]): 174 ± 18%
- excretion Na+ (Male SD rats [1]; [5]): 385 ± 50%
- excretion urine (Male SD rats [1]; [5]): 293 ± 50%
- diuretic and natriuretic actions compared to that of α-hANP (Male SD rats [1]; anesthetized rats, ratio to α-hANP): about 1/100
- natriuretic action (in words) (Male SD rats [1]; rats): natriuretic action; also recorded: increase dose dependently
- decrease of blood pressure (Male SD rats [2]; [3]): 4.4 ± 1.9%
- decrease of the blood pressure at the contract phase of heart (Male SD rats [2]; 30 μg/kg, over a period of 30 min, typical experiment, anesthetized rats): about 5%
- decrease of blood pressure (Male SD rats [2]; [4]): 0.3 ± 2.0%
- decrease of blood pressure (Male SD rats [2]; [5]): 11.5 ± 1.5%
- vasodepressor activity (in words) (Male SD rats [2]; rats): weak vasodepressor action; also recorded: vasodepressor activity; also recorded: increase dose dependently

Compound: α-hANP: A-type (atrial) natriuretic peptide used as comparison; activity set to 100 (SLRRSSCFGGRMDRIGAQSGLGCNSFRY; ends and bridges not checked; cysteine pairing not given here; UniProt P01160 124-151, looked up) [reference compound]
- relative activity (chicken rectum; relaxant activity of equimolar amount of peptides, activity of hANP = 100, averages of six repeats): 100
- excretion Cl- (Male SD rats [1]; [6]): 362 + 34%
- excretion K+ (Male SD rats [1]; [6]): 220 ± 22%
- excretion Na+ (Male SD rats [1]; [6]): 461 ± 41%
- excretion urine (Male SD rats [1]; [6]): 414 ± 46%
- decrease of blood pressure (Male SD rats [2]; [6]): 9.0 ± 2.5%
